In ChEMBL document CHEMBL5614442, “Discovery, synthesis and biological evaluation of novel isoquinoline derivatives as potent indoleamine 2, 3-dioxygenase 1 and tryptophan 2, 3-dioxygenase dual inhibitors” (Eur J Med Chem, 2024):
Active and inactive are the calls of the source. The calls are words filed in the database; no cut-off is given here.

Assays:
[1] = biological target: T1, Indoleamine 2,3-dioxygenase 1 (Homo sapiens, UniProt P14902); experiment: Inhibition of N-terminal His-tagged recombinant human IDO1 extracted from Escherichia coli Transetta (DE3) using L-tryptophan as substrate preincubated for 5 mins followed by substrate addition and measured after 1 hrs by absorbance based microplate reader
Target sequence in this assay (P14902 whole entry): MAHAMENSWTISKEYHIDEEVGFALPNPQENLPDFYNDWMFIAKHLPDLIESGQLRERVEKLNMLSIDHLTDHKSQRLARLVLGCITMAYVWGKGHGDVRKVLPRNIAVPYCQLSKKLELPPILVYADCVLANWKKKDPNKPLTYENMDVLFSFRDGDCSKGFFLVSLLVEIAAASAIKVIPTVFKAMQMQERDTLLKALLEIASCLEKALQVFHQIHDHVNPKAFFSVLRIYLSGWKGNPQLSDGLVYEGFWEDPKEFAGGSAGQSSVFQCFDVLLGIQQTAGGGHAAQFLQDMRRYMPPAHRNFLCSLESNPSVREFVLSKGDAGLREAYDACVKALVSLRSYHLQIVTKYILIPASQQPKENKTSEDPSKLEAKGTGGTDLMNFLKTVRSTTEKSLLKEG

[2] = biological target: T1, Indoleamine 2,3-dioxygenase 1; experiment: Inhibition of IDO1 in IFN-gamma induced human HeLa cells using L-tryptophan as substrate incubated for 24 hrs by absorbance based microplate analysis; type: cell-based
Target sequence in this assay (P14902 whole entry): as above

[3] = biological target: T2, Tryptophan 2,3-dioxygenase (Homo sapiens, UniProt P48775)
Target sequence in this assay (P48775 whole entry): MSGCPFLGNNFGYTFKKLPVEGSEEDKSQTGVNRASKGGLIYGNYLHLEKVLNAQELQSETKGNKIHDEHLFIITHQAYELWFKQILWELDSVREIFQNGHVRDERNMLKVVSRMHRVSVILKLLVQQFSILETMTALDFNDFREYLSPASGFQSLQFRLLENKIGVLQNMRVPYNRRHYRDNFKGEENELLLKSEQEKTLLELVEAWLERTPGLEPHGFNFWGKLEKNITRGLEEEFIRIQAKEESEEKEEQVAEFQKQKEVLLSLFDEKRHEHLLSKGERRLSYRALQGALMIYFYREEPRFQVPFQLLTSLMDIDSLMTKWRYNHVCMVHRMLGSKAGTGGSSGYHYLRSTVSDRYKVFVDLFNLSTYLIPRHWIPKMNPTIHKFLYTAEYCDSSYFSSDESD

[4] = biological target: T2, Tryptophan 2,3-dioxygenase; remark: listed apart in the source
Target sequence in this assay (P48775 whole entry): as above

[5] = biological target: T1, Indoleamine 2,3-dioxygenase 1; experiment: Inhibition of IDO1 (unknown origin)
Target sequence in this assay (P14902 whole entry, looked up): as the sequence (P14902 whole entry) above

[6] = biological target: T2, Tryptophan 2,3-dioxygenase; experiment: Inhibition of TDO (unknown origin)
Target sequence in this assay (P48775 whole entry, looked up): as the sequence (P48775 whole entry) above

| SMILES | IC50 [1] [µM] | IC50 [2] [µM] | IC50 [3] [µM] | IC50 [4] [µM] | inhibition [5] | inhibition [6] |
| --- | --- | --- | --- | --- | --- | --- |
| COc1ccc(-c2cc3ccc(OC)c(O)c3cn2)cc1 | 0.71 | 15.8 | 0.45 | > 30 |  |  |
| COc1ccc2cc(-c3ccc(NS(=O)(=O)C4CC4)cc3)ncc2c1O | 4.54 |  | 3.36 |  |  |  |
| COc1ccc2cc(-c3ccccc3)ncc2c1O | 0.89 | 17.1 | 0.24 | 24 |  |  |
| COc1ccc2nc(-c3ccccc3)ccc2c1O | > 100 |  | 5.6 |  |  |  |
| COc1ccc2cc(-c3ccc(NC(=O)c4ccccc4)cc3)ncc2c1O | 4.45 | > 30 | 0.19 | 14.6 |  |  |
| COc1ccc2cc(-c3ccc(NS(=O)(=O)N4CCCCC4)cc3)ncc2c1O | 15.4 |  | 7.97 |  |  |  |
| COc1ccc2cc(-c3cccs3)ncc2c1OC | 11.2 |  | 2.9 |  |  |  |
| Oc1ccc2cc(-c3ccc4c(c3)OCO4)ncc2c1 | > 100 |  | > 100 |  |  |  |
| COc1ccc2cc(-c3ccc(NC(=O)c4ccc(F)cc4)cc3)ncc2c1O | > 100 |  | > 100 |  |  |  |
| COc1ccc2cc3[n+](cc2c1O)CCc1cc2c(cc1-3)OCO2 |  |  |  |  | Active | Active |
| COc1ccc2cc(-c3ccc(C(F)(F)F)cc3)ncc2c1O | 15.3 |  | 7.28 |  |  |  |
| COc1ccc2cc(-c3ccc4ncsc4c3)ncc2c1OC | > 100 |  | > 100 |  |  |  |
| COc1ccc2cc(-c3ccc(Br)cc3)ncc2c1OC | 78.6 |  | 34.3 |  |  |  |
| COc1ccc2cc(-c3ccc(NC(=O)Nc4ccccc4)cc3)ncc2c1O | 50.5 |  | 14.3 |  |  |  |
| COc1ccc2cc(-c3ccc(NC(=O)C(C)(C)C)cc3)ncc2c1O | 2.81 |  | 1.2 |  |  |  |
| COc1ccc2cc(-c3ccc(F)cc3)ncc2c1OC | 42.6 |  | 9.08 |  |  |  |
| COc1cccc(C(=O)Nc2ccc(-c3cc4ccc(OC)c(O)c4cn3)cc2)c1 | 14.2 |  | 4.08 |  |  |  |
| COc1ccc2cc(-c3ccc(C)cc3)ncc2c1O | > 100 |  | > 100 |  |  |  |
| COc1ccc2cc(-c3ccc(NS(C)(=O)=O)cc3)ncc2c1O | 1.24 | 23 | 0.2 | 14.8 |  |  |
| Oc1cccc2cc(-c3ccccc3)ncc12 | 70.5 |  | 25 |  |  |  |
